Experimental data from patent US20080069896A1, “Antitumor Composition” (Kabushiki Kaisha Sangi, priority 2004, published 2008).

Columns and labels:
Type in all cases: cell-based
[1] = system: YES1; assay: MTT assay, human cancer cells YES1; settings: for IC50 of human cancer cells by MTT assay: YES1, esophageal cancer, HAP agents particle diameter 0.1 μm or less; for Platinum content calculated from IC50 of human cancer cells by MTT assay: YES1, IC50 converted to platinum concentration
Procedure: (§1) Effect of platinum tetrachloride/hydroxyapatite (PtCl4/HAP) and hexachloroplatinate/hydroxyapatite (H2PtCl6/HAP) against human cancer cells (MTT assay)
(§2) According to “in vitro toxicity test using MTT”, which is an ordinary test method, MTT assay was performed for PtCl4/HAP (particle diameter 0.1 μm or less), and H2PtCl6/HAP (particle diameter 0.1 μm or less) by using 19 types of human cancer cells. PtCl4/HAP and H2PtCl6/HAP were used by adjusting the final dispersion concentration to 1.0% in a dispersion liquid each containing 10% platinum as a theoretical value. For comparison, MTT assay was performed for PtCl4 and CDDP. PtCl4 was dissolved at an adequate dose, and then used after serial dilution with PBS (−). For CDDP, injection liquid from Malco was used.

[2] = system: human lung cancer cell Lu99; assay: MTT assay, human lung cancer cell Lu99; settings: for IC50 of human cancer cells by MTT assay: Lu99, lung cancer, HAP agents particle diameter 0.1 μm or less (Table 1); for Platinum content calculated from IC50 of human cancer cells by MTT assay: Lu99, IC50 converted to platinum concentration (Table 2)
Procedure: as §1, §2

[3] = system: human lung cancer cell Lu65; assay: MTT assay, human lung cancer cell Lu65; settings: for IC50 of human cancer cells by MTT assay: Lu65, lung cancer, HAP agents particle diameter 0.1 μm or less (Table 1); for Platinum content calculated from IC50 of human cancer cells by MTT assay: Lu65, IC50 converted to platinum concentration (Table 2)
Procedure: as §1, §2

[4] = system: LoVo; assay: MTT assay, human cancer cells LoVo; settings: for Platinum content calculated from IC50 of human cancer cells by MTT assay: IC50 converted to platinum concentration; for IC50 of human cancer cells by MTT assay: colon cancer, HAP agents particle diameter 0.1 μm or less
Procedure: as §1, §2

[5] = system: HSC4; assay: MTT assay, human cancer cells HSC4; settings: for IC50 of human cancer cells by MTT assay: HSC4, oral cancer, HAP agents particle diameter 0.1 μm or less; for Platinum content calculated from IC50 of human cancer cells by MTT assay: HSC4, IC50 converted to platinum concentration
Procedure: as §1, §2

[6] = system: HepG2; assay: MTT assay, human cancer cells HepG2; settings: for IC50 of human cancer cells by MTT assay: HepG2, liver cancer, HAP agents particle diameter 0.1 μm or less; for Platinum content calculated from IC50 of human cancer cells by MTT assay: HepG2, IC50 converted to platinum concentration
Procedure: as §1, §2

[7] = system: fibroblasts during proliferation stage; assay: Toxicity test during proliferation stage (MTT assay); settings: rat fibroblasts, 48 hours; for IC50 in the toxicity test during proliferation stage: HAP agents particle diameter 0.1 μm or less
Source text: A male mature rat was deeply anesthetized with ether, and disinfected by wiping carefully its tail with alcohol. The tail end part was cut by several centimeters, and the skin was removed from coccyx. Tendon was attached to the coccyx, and by culturing the same, fibroblasts can be recovered. Coccyx part was further cut finely with a sterilized pair of scissors, and adhered on a sterilized plastic plate with the cut surface down. After resting the plate for a while, DMEM supplemented with 10% FBS was added thereto. In approximately one week, fibroblasts germinated from the coccyx part, and proliferated in the plate. The fibroblasts collected from rat tail end were used for the following experiment.
According to “in vitro toxicity test method using MTT” which is an ordinary test method, MTT assay was performed for PtCl4/HAP (particle diameter 0.1 μm or less) and H2PtCl6/HAP (particle diameter 0.1 μm or less). PtCl4/HAP and H2PtCl6/HAP were used by adjusting the final dispersion concentration to 1.0%, with a dispersion liquid each containing 10% platinum as a theoretical value. For comparison, MTT assay was performed for PtCl4 and CDDP. PtCl4 was dissolved at an adequate dose, and then used after serial dilution with PBS (−) For CDDP, injection liquid from Malco was used.
Fibroblasts during proliferation stage on the plate were peeled off with trypsin-EDTA, adjusted to 1×10^4/ml, and poured by aliquot of […] in a 96-well plate.
The 96-well plate added with fibroblasts was cultured for 24 hours, and samples serially diluted with PBS (−) were added by an amount of 10 μl. 48 hours after adding a test sample, 200 μl of PBS (−) was added to the 96-well plate, and approximately 1 min after, all the solution was removed. Immediately, 160 μl of DMSO was added to the plate. However, to the plates in which PtCl4/HAP and H2PtCl6/HAP were added, DMSO was added in an amount of 200 μl, respectively. Each plate was shaken for 5 min in a shaker, to dissolve completely the formed formazan. As it was believed that precipitation of PtCl4/HAP and H2PtCl6/HAP would suppress the colorization, the plates of PtCl4/HAP and H2PtCl6/HAP were rested for 5 min, and 160 μl of the supernatant was moved to another 96-well plate. Test samples for each cell and each concentration, the test was performed for 4 wells or more, and the optical density was measured by using a microplate at 550 nm.

[8] = system: HT1080; assay: MTT assay, human cancer cells HT1080; settings: for IC50 of human cancer cells by MTT assay: HT1080, fibrosarcoma, HAP agents particle diameter 0.1 μm or less; for Platinum content calculated from IC50 of human cancer cells by MTT assay: HT1080, IC50 converted to platinum concentration
Procedure: as §1, §2

[9] = system: NUGC-4; assay: MTT assay, human cancer cells NUGC-4; settings: for IC50 of human cancer cells by MTT assay: NUGC-4, gastric cancer, HAP agents particle diameter 0.1 μm or less; for Platinum content calculated from IC50 of human cancer cells by MTT assay: NUGC-4, IC50 converted to platinum concentration
Procedure: as §1, §2

[10] = system: Kato-III; assay: MTT assay, human cancer cells Kato-III; settings: for Platinum content calculated from IC50 of human cancer cells by MTT assay: KATO-III, IC50 converted to platinum concentration; for IC50 of human cancer cells by MTT assay: Kato-III, gastric cancer, HAP agents particle diameter 0.1 μm or less
Procedure: as §1, §2

| SMILES | IC50 of human cancer cells by MTT assay [1] | Platinum content calculated from IC50 of human cancer cells by MTT assay [1] | IC50 of human cancer cells by MTT assay [2] | Platinum content calculated from IC50 of human cancer cells by MTT assay [2] | IC50 of human cancer cells by MTT assay [3] | Platinum content calculated from IC50 of human cancer cells by MTT assay [3] | Platinum content calculated from IC50 of human cancer cells by MTT assay [4] | IC50 of human cancer cells by MTT assay [4] | IC50 of human cancer cells by MTT assay [5] | Platinum content calculated from IC50 of human cancer cells by MTT assay [5] | IC50 of human cancer cells by MTT assay [6] | Platinum content calculated from IC50 of human cancer cells by MTT assay [6] | Net Pt: platinum content wherein IC50 is converted to platinum concentration, proliferation stage [7] | IC50 in the toxicity test during proliferation stage [7] | IC50 of human cancer cells by MTT assay [8] | Platinum content calculated from IC50 of human cancer cells by MTT assay [8] | IC50 of human cancer cells by MTT assay [9] | Platinum content calculated from IC50 of human cancer cells by MTT assay [9] | Platinum content calculated from IC50 of human cancer cells by MTT assay [10] | IC50 of human cancer cells by MTT assay [10] |
| --- | --- | --- | --- | --- | --- | --- | --- | --- | --- | --- | --- | --- | --- | --- | --- | --- | --- | --- | --- | --- |
| [Cl][Pt]([Cl])([Cl])[Cl] [PtCl4, platinum tetrachloride] | 19.2 ppm | 11.1 ppm | 1.1 ppm | 1.1 ppm | 0.9 ppm | 0.9 ppm | 3.8 ppm | 6.6 ppm | 5.7 ppm | 3.3 ppm | 6.2 ppm | 6.2 ppm | 2.3 ppm | 4.0 ppm | 9.6 ppm | 5.6 ppm | 7.7 ppm | 4.5 ppm | 3.4 ppm | 5.8 ppm |
| [NH2][Pt]([NH2])([Cl])[Cl] [CDDP, cisplatin] | 8.2 ppm | 5.4 ppm | 0.8 ppm | 0.8 ppm | 2.7 ppm | 2.7 ppm | 10.3 ppm | 15.8 ppm | 4.5 ppm | 2.9 ppm | 5.0 ppm | 5.0 ppm | 0.3 ppm | 0.5 ppm | 25.5 ppm | 16.6 ppm | 15.6 ppm | 10.1 ppm | 1.8 ppm | 2.7 ppm |
